Data taken from patent US12721838B2 (Henry Ford Health System, priority 2020, dated 2026).

Legend:
LNCaP-ENR cells = test: Soft-agar colony formation assay; type: cell-based, human; details: LNCaP-ENR (ERPC) cells, three weeks; DCV at 8 μM
Method: Effect of DCV on soft-agar colony formation was also analyzed. LNCaP-ENR cells (10,000 per well in 6-well plates) were plated in 0.3% soft-agar on top of a base layer of 0.6% agar. The cells were treated with DCV and incubated at 37° C. for three weeks in the CO2 incubator. Cells were given fresh media and drug every fourth day. At the end of the incubation period, colonies were stained with 0.025% crystal violet, and pictures of colonies were taken with a Nikon digital camera at ×200. Image processing was done using Q-Capture Pro-7 software. Exemplary methods of the foregoing technique can be found in Sarveswaran, Sivalokanathan et al. “Inhibition of 5-lipoxygenase downregulates stemness and kills prostate cancer stem cells by triggering apoptosis via activation of c-Jun N-terminal kinase.” Oncotarget vol. 10, 4 424-436. 11 Jan. 2019, the disclosure of which is incorporated herein by reference in its entirety.

ERPC cells = test: DNA degradation assay; type: cell-based, human
Text: FIG. 17 depicts a graph showing the apoptotic effects of DCV as measured by DNA degradation assay.

What does the source list for `COC(=O)N[C@H](C(=O)N1CCC[C@H]1c1nc(-c2ccc(-c3ccc(-c4c[nH]c([C@@H]5CCCN5C(=O)[C@@H](NC(=O)OC)C(C)C)n4)cc3)cc2)c[nH]1)C(C)C` [Daclatasvir, 4,4′-bis[2-((2S)-1-{(2S)-2-[(methoxycarbonyl)amino]-3-methylbutanoyl}-2-pyrrolidinyl)-1H-imidazol-4-yl]-1,1′-biphenyl]?
soft-agar colony formation (LNCaP-ENR cells): completely blocked; degradation of chromatin DNA (ERPC cells): triggers degradation of chromatin DNA to nucleosomal fragments
